Our source for the GI50 and solubility values is ChEMBL document CHEMBL1144614, “Darpones and water-soluble aminobutoxylated darpone derivatives are distinguished by matrix COMPARE analysis” (Bioorg Med Chem Lett, 2007).

The GI50 is the concentration that inhibits growth by half. As a reminder, the solubility is how much of the substance goes into solution per volume. Higher therefore signals much dissolved substance.

For one data set, the system named is HCT-15. Description: Growth inhibition of HCT15 cells. Type of data set: functional. Conditions: Homo sapiens.
Data set [1] can be described thus: Solubility in phosphate buffer at pH 4.5. Type of data set: physicochemical.

`COc1ccc(-c2cc(-c3cccc(Cl)c3)nc3c2CC(=O)Nc2ccccc2-3)cc1` registered a 50% growth inhibitory concentration (GI50) with HCT-15 of 1900 nM.
On the same count and under the same terms, the result for `O=C1Cc2c(-c3ccccc3)cc(-c3cccc(Cl)c3)nc2-c2ccccc2N1` reads 2700 nM.
Still for that read-out and setting: the result for `COc1ccc2c(c1)NC(=O)Cc1c(-c3ccccc3)cc(-c3cccc(Cl)c3)nc1-2` reads more than 100000 nM; that for `COc1ccc(-c2cc(-c3ccccc3)c3c(n2)-c2ccccc2NC(=O)C3)cc1Cl`, 3000 nM.
The molecule `Cl.NCCCCOc1ccc(-c2cc(-c3ccccc3)c3c(n2)-c2ccccc2NC(=O)C3)cc1Cl` returned a solubility in data set [1] of less than 5 µg/mL. Besides, in the data set on HCT-15, the GI50 worked out at 13800 nM.
The like results for `CN1CCN(CCCCOc2ccc(-c3cc(-c4ccccc4)c4c(n3)-c3ccccc3NC(=O)C4)cc2Cl)CC1.Cl.Cl` were, in that order, less than 5 µg/mL and 870 nM.
The like results for `CN1CCN(CCCCOc2ccc3c(c2)NC(=O)Cc2c(-c4ccccc4)cc(-c4cccc(Cl)c4)nc2-3)CC1.Cl.Cl` were, in that order, more than 500 µg/mL and 810 nM.
For `CN1CCN(CCCCOc2ccc(-c3cc(-c4cccc(Cl)c4)nc4c3CC(=O)Nc3ccccc3-4)cc2)CC1.Cl.Cl` the same measures were more than 500 µg/mL and 910 nM.
`Cl.O=C1Cc2c(-c3ccc(OCCCCN4CCOCC4)cc3)cc(-c3cccc(Cl)c3)nc2-c2ccccc2N1` registered a solubility in data set [1] of more than 500 µg/mL. The molecule also gave a GI50 in the data set on HCT-15 of 1200 nM.
For `Cl.O=C1Cc2c(-c3ccccc3)cc(-c3ccc(OCCCCN4CCOCC4)c(Cl)c3)nc2-c2ccccc2N1` the same measures were 5 µg/mL and 2300 nM.
For `Cl.NCCCCOc1ccc(-c2cc(-c3cccc(Cl)c3)nc3c2CC(=O)Nc2ccccc2-3)cc1` the same measures were less than 5 µg/mL and 6600 nM.
Take `Cl.O=C1Cc2c(-c3ccccc3)cc(-c3cccc(Cl)c3)nc2-c2ccc(OCCCCN3CCOCC3)cc2N1`: the solubility in data set [1] is more than 500 µg/mL. In the data set with HCT-15, this molecule yielded a 50% growth inhibitory concentration (GI50) of 1600 nM.
The like results for `Cl.NCCCCOc1ccc2c(c1)NC(=O)Cc1c(-c3ccccc3)cc(-c3cccc(Cl)c3)nc1-2` were, in that order, less than 5 µg/mL and 1800 nM.
